Literature values in patent US20190289847A1, “SUSTAINED RELEASE FIBERS” (INVISTA TEXTILES (U.K.) LIMITED, priority 2016, published 2019).

Columns and labels:
fleas and ticks = settings: literature

SMILES: O=C(Oc1ccccc1)c1ccccc1O [phenyl salicylate]
- duration of efficacy (dust mites; applied in a typical manner, i.e. topical application, at best): 3-4 months
- effectiveness against dust mites (dust mites; literature): effective
- effectiveness against fleas and ticks (fleas and ticks): effective
